Laboratory results as given in PubChem BioAssay (NCI).
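1) Cells in 96-well plates. 2) Compound, 48 h, 5 concentrations. 3) Linear interpolation between surrounding doses. 4) Unreached endpoint = highest concentration. At the GI50, growth is halved. TGI denotes the concentration required for complete inhibition of growth.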

Columns and labels:
Test in all cases: NCI tumour cell line growth inhibition, 48 h
KM12 colon = tested on: KM12 colon
SF-295 CNS = tested on: SF-295 CNS
HCT-15 colon = tested on: HCT-15 colon
SNB-75 CNS = tested on: SNB-75 CNS
OVCAR-4 ovarian = tested on: OVCAR-4 ovarian
DU-145 prostate = tested on: DU-145 prostate
SN12C renal = tested on: SN12C renal
SW-620 colon = tested on: SW-620 colon
UO-31 renal = tested on: UO-31 renal
CAKI-1 renal = tested on: CAKI-1 renal

Row | Structure (SMILES) | GI50 (KM12 colon) [µM] | TGI (KM12 colon) [µM] | GI50 (SF-295 CNS) [µM] | TGI (SF-295 CNS) [µM] | GI50 (HCT-15 colon) [µM] | TGI (HCT-15 colon) [µM] | GI50 (SNB-75 CNS) [µM] | TGI (SNB-75 CNS) [µM] | GI50 (OVCAR-4 ovarian) [µM] | TGI (OVCAR-4 ovarian) [µM] | GI50 (DU-145 prostate) [µM] | TGI (DU-145 prostate) [µM] | GI50 (SN12C renal) [µM] | TGI (SN12C renal) [µM] | GI50 (SW-620 colon) [µM] | TGI (SW-620 colon) [µM] | GI50 (UO-31 renal) [µM] | TGI (UO-31 renal) [µM] | GI50 (CAKI-1 renal) [µM] | TGI (CAKI-1 renal) [µM]
1 | Cc1ccc(NCSc2ccc(Cl)cc2)cc1 | 9.91 | > 100 | 24.9 | > 100 | > 100 | > 100 | 9.92 | 45.5 | 5.06 | > 100 | > 100 | > 100 | 7.01 | > 100 | > 100 | > 100 | 1.65 | 30.8 | 5.51 | > 100
2 | COc1ccccc1Cn1cc2c(c1)-c1oncc1CC2 | 0.435 | 6.94 | 0.375 | 3.88 | 0.535 | > 61.2 | 0.396 | 9.7 | 3.86 | 97.9 | 0.357 | 3.4 | 0.728 | > 100 | 0.351 | > 100 | 4.28 | 42.7 | 0.545 | > 55.8
3 | COc1cc[nH]c1/C=C1\C(=O)Nc2ccc(F)c(C#CC3(O)CCOCC3)c21 | 0.0104 | 1.92 | 0.849 | 16.4 | 0.481 | > 15.3 | 0.338 | 1.94 | 2.34 | 14.7 | 0.806 | > 25 | 0.615 | > 25 | 0.619 | > 8.38 | 0.512 | > 6.99 | 0.011 | 
4 | CC[C@]12C=CCN3CC[C@]4(C(=C(C(=O)OC)C1)Nc1cc(O)ccc14)[C@@H]32 | 13.1 | 30.6 | 16.7 | 33.1 | 14.6 | 36.5 | 7.38 | 40.2 | 22 | 76.4 | 21.7 | 45.3 | 15.4 | 29.7 | 16.3 | 36.6 | 12.9 | 25.8 | 14.1 | 37.1
5 | O=C1OC(c2ccc(O)cc2)(c2ccc(O)cc2)c2cccc3cccc1c23 | 10.5 | 25.2 | 15 | 31.8 | 13.6 | 34.3 | 9.97 | 27.1 | 0.18 | 17.4 | 17.2 | 31.6 | 12.7 | 38.4 | 15.5 | 33.3 | 12.5 | 28.9 | 18.1 | 44.6
6 | CCOC(=O)c1[nH]c2c(c1C)-c1[nH]c(=O)c(S(=O)(=O)c3ccccc3)cc1SC2 | 38.5 | > 100 | 28.1 | > 100 | > 100 | > 100 | 24.8 | 86.6 | 28.8 | 86.5 | 30.6 | > 100 | 93.6 | > 100 | 57.9 | > 100 | > 100 | > 100 | 54.1 | > 100
7 | Cc1c(C(C)C)cc(OCCO)cc1C(C)C |  | > 100 |  | > 100 |  | > 100 |  | > 100 |  | > 100 |  | > 100 |  | 93.1 |  | > 100 |  | > 100 |  | > 100
8 | O=C(N[C@@H]1CCCc2ccccc21)[C@H](CCC(=O)N1CCN(C2CCCCC2)CC1)N1C(=O)[C@@H](N2C(=O)OC[C@@H]2c2ccccc2)[C@H]1/C=C/c1ccccc1 | 2.62 | 11.6 | 2.34 | 7.57 | 2.97 | 12.3 | 1.32 | 4.19 | 3.11 | 32 | 2.9 | 19.3 | 3.72 | 27.3 | 3.06 | 10.8 | 2.01 | 8.68 | 1.92 | 6.8
9 | Oc1cccc(-c2nc3ccccc3s2)c1 |  | 48.6 |  | 86.7 |  | > 100 |  | 61.8 |  | > 100 |  | > 100 |  | > 100 |  | > 100 |  | > 100 |  | 66
